In US20140213575A1, “6H-Thieno[3,2-f][1,2,4]triazolo[4,3-a][1,4]diazepines” (BAYER INTELLECTUAL PROPERTY GMBH, priority 2011, published 2014) one finds IC50, fu and fraction unbound data, which are given here for 2 molecules.

One data set concerns LNCaP cells. Kind of data set: Cellular proliferation assay (alamarBlue) LNCaP. Type of data set: cell-based. Conditions: Homo sapiens, 168 hours, read-out: Prostate LNCaP IC50. How it is done:
(§1) In accordance with the invention, the ability of the substances to inhibit the proliferation of various cell lines was determined. Cell viability was determined by means of the alamarBlue® reagent (Invitrogen). […] After incubation overnight at 37° C., the fluorescence values were determined (CI values). […] Then the fluorescence values were determined (CO values).
(§2) The substances were investigated in the cell lines in Table 1, which for example represent the stated indications: […]
Background: The colour change of resazurin is a common sign of viable cells or microbes.

The next data set concerns B16F10 cells. Kind of data set: Cellular proliferation assay (alamarBlue) B16F10. Type of data set: cell-based. The note with it: Mus musculus, B16-F10, 96 hours, read-out: Melanoma B16F10 IC50. How it is done: as §1, §2
Another data set relates to plasma proteins. The data set is described as follows: Plasma protein binding by equilibrium dialysis. Type of data set: in vitro ADME, mouse. The note with it: for fu: free fraction of the species investigated (mouse), as used in Table 6; for fraction unbound: mouse, plasma, free (unbound) fraction, equilibrium dialysis, read-out: Protein binding, given as % fu. The procedure: The binding of test substances to plasma proteins is determined by equilibrium dialysis by means of the Ht-dialysis apparatus (96-well) made of Teflon and a semipermeable membrane (regenerated cellulose, MWCO 12-14K). This separates 150 μl of each of a plasma side and a buffer side (50 mM phosphate buffer). The test substance is added in 2 concentrations (usually 3 and 0.3 μM) to the plasma side and binds to plasma proteins. The unbound fraction of the test substance passes through the membrane and is distributed on either side until equilibrium is established (after approx. 6-8 h at 37° C.). The substance concentration on the buffer side and the plasma side is determined by LC-MS analysis. For this, both sides are brought by dilution with buffer or plasma to the same matrix (10% plasma) and then precipitated with methanol. The free (unbound) fraction (fu) is calculated from the quotient of the buffer and plasma concentration. Stability tests and recovery tests are run concurrently as controls. In addition, the substance in buffer is dialysed against buffer, to check the nonspecific binding to apparatus and membrane and establishment of equilibrium. Because during incubation the osmotic pressure of the plasma proteins leads to dilution of the plasma (volume shift), this possible error is determined by weighing blank plasma samples and is included in the calculation of fu. Establishment of equilibrium and plasma stability should have a value not lower than 80% and the recovery should be at least 30%. A free fraction of <1% is regarded as high, between 1 and 10% as moderate and >10% as low plasma protein binding.

A further data set has as its system MOLM-13 cells. The data set is described as follows: Cellular proliferation assay (alamarBlue) MOLM-13. Type of data set: cell-based. The note with it: Homo sapiens, 96 hours, read-out: Leukaemia MOLM-13 IC50. How it is done: as §1, §2
The subject of a further data set is MDA-MB-231 cells. Kind of data set: Cellular proliferation assay (alamarBlue) MDA-MB-231. Type of data set: cell-based. The note with it: Homo sapiens, 96 hours, read-out: Breast MDA-MB-231 IC50. The procedure:
as §1, §2

The next data set relates to VCaP cells. Kind of data set: Cellular proliferation assay (alamarBlue) VCaP. Type of data set: cell-based. The note with it: Homo sapiens, 168 hours, read-out: Prostate VCaP IC50. How it is done: as §1, §2
In a further data set the test system is LAPC-4 cells. The data set is described as follows: Cellular proliferation assay (alamarBlue) LAPC-4. Type of data set: cell-based. Conditions: Homo sapiens, LAPC4, 168 hours, read-out: Prostate LAPC-4 IC50. How it is done: as §1, §2
A further data set concerns the target T1, BRD4(1) (Homo sapiens, UniProt O60885).
T1 construct: BRD4(1) (amino acids 44-168); made in house; host or cells: E. coli
Kind of data set: Binding assay BRD4/acetylated peptide H4 (TR-FRET/HTRF protein-protein interaction assay). The note with it: inhibition of interaction BRD4(1) / acetylated histone H4 peptide, TR-FRET. The text has this: Binding Assay BRD4/Acetylated Peptide H4 (“PRQ”)
To assess the BRD4 binding strength of the substances described in this application, their capacity for dose-dependent inhibition of the interaction between BRD4 and acetylated histone H4 was quantified.
For this purpose, a time-resolved fluorescence resonance energy transfer (TR-FRET) assay was used, which measures the binding between N-terminally His6-tagged BRD4(1) (amino acids 44-168) and a synthetic acetylated histone H4 (Ac-H4) peptide with the sequence GRGK(Ac)GGK(Ac)GLGK(Ac)GGAK(Ac)RHGSGSK-biotin. The recombinant BRD4 protein (produced in-house) was expressed in E. coli and was purified by (Ni-NTA) affinity chromatography and (Sephadex G-75) size-exclusion chromatography. The Ac-H4 peptide can be purchased for example from Biosyntan (Berlin, Germany).
In the assay, typically 11 different concentrations of each substance (0.1 nM, 0.33 nM, 1.1 nM, 3.8 nM, 13 nM, 44 nM, 0.15 μM, 0.51 μM, 1.7 μM, 5.9 μM and 20 μM) were measured as duplicates on the same microtitre plate. For this, 100-fold concentrated solutions in DMSO were prepared by serial dilutions (1:3.4) of a 2 mM stock solution in a clear, 384-well microtitre plate (Greiner Bio-One, Frickenhausen, Germany). From this, 50 nl was transferred to a black assay plate (Greiner Bio-One, Frickenhausen, Germany). The assay was started by supplying 2 μl of a 2.5-fold concentrated BRD4 solution (usually 10 to 50 nM final concentration in the 5 μl of the reaction volume) in aqueous assay buffer [50 mM HEPES pH 7.5, 50 mM sodium chloride (NaCl), 0.25 mM CHAPS and 0.05% serum albumin (BSA)] to the substances in the assay plate. This was followed by a 10-minute incubation step at 22° C. for the pre-equilibration of putative complexes between BRD4 and the substances.
The mixture was then incubated in the dark for one hour at 22° C. and then overnight at 4° C. The formation of BRD4/Ac-H4 complexes was determined by measuring the resonance energy transfer from the streptavidin-Eu-cryptate to the anti-6His-XL665 antibody that is present in the reaction. For this, the fluorescence emissions at 620 nm and 665 nm were measured after excitation at 330-350 nm in a TR-FRET measuring instrument, e.g. a Rubystar or Pherastar (both from BMG Lab Technologies, Offenburg, Germany) or a Viewlux (Perkin-Elmer). The ratio of the emissions at 665 nm and at […] was taken as an indicator of the amount of BRD4/Ac-H4 complexes formed.
The data obtained (ratio) were normalized, wherein 0% inhibition corresponded to the mean value from the measured values of a set of controls (usually 32 data points), in which all reagents were contained. 50 nl DMSO (100%) was used instead of test substances. Inhibition of 100% corresponded to the mean value from the measured values of a set of controls (usually 32 data points), in which all reagents except BRD4 were contained. The IC50 value was determined by regression analysis based on a 4-parameter equation (minimum, maximum, IC50, Hill; Y=Max+(Min−Max)/(1+(X/IC50)^Hill)) using Bayer's own analysis software.
(In general: In TR-FRET formats the signal depends on donor and acceptor labels being close together.)

Turning to `Cc1sc2c(c1C)C(c1ccc(Cl)cc1)=N[C@@H](CC(=O)N1C3CCC1CC(=O)C3)c1nnc(C)n1-2` [Example 1, 8-{2-[(S)-4-(4-Chlorophenyl)-2,3,9-trimethyl-6H-thieno[3,2-f][1,2,4]triazolo[4,3-a][1,4]diazepin-6-yl]acetyl}-8-azabicyclo[3.2.1]octan-3-one], the IC50 (as a rule, the concentration that inhibits the measured activity by half) in the data set with LNCaP cells amounted to 90 nM; in the data set with B16F10 cells, 97 nM; in the data set with MOLM-13 cells, 91 nM; in the data set with MDA-MB-231 cells it was 110 nM; with VCaP cells, 39 nM; in the data set on LAPC-4 cells, 54 nM. Besides, the half-maximal inhibitory concentration (IC50) at BRD4(1) stood at 28 nM. For the same molecule, the fu with plasma proteins is reported as 12%. Also, in the data set with plasma proteins, the fraction unbound stood at 0.12.

Turning to `Cc1sc2c(c1C)C(c1ccc(Cl)cc1)=N[C@@H](CC(=O)N1CC3(COC3)C1)c1nnc(C)n1-2` [Example 2, 2-[(S)-4-(4-Chlorophenyl)-2,3,9-trimethyl-6H-thieno[3,2-f][1,2,4]triazolo[4,3-a][1,4]diazepin-6-yl]-1-(2-oxa-6-azaspiro[3.3]hept-6-yl)ethan-1-one], the IC50 was 80 nM in the data set on LNCaP cells; 82 nM in the data set on B16F10 cells; 98 nM in the data set on MOLM-13 cells; 117 nM in the data set on MDA-MB-231 cells; 58 nM with VCaP cells; 43 nM with LAPC-4 cells. Further, the IC50 at BRD4(1) stood at 27 nM. Moreover, the fu in the data set on plasma proteins stood at 25%. Also, in the data set on plasma proteins, the fraction unbound was found to be 0.25.
